Source: ChEMBL document CHEMBL1135095, “3-D QSAR studies on new dibenzyltin(IV) anticancer agents by comparative molecular field analysis (CoMFA)” (Bioorg Med Chem Lett, 2002)

Legend:
Mus musculus = species on record: Mus musculus; experiment: Lethal dose in swiss albino mice by peroral route; type: toxicity, organism-based; conditions: in vivo, po
IGROV-1 = experiment: In vitro antitumor activity against IGROV human cancer cell line; type: functional, cell-based
SK-MEL19 = experiment: In vitro antitumor activity against MEL 19 human cancer cell line; type: functional, cell-based
WiDr = experiment: In vitro antitumor activity against WIDR human cancer cell line; type: functional, cell-based

Row | Sequence | LD50 (Mus musculus) [mg/kg] | ID50 (IGROV-1) [µM] | ID50 (SK-MEL19) [µM] | ID50 (WiDr) [µM]
1 | CARBOPLATIN [listing 1 of 2 here] | 150 |  |  | 
2 | CARBOPLATIN [listing 2 of 2 here] |  | 646 | 1480 | 943
3 | CISPLATIN [listing 1 of 2 here] | 31 |  |  | 
4 | CISPLATIN [listing 2 of 2 here] |  | 75 | 260 | 450
